Reference: PMC9501525, “Conjugation of a Cationic Cell-Penetrating Peptide with a Novel Kunitzin-like Trypsin Inhibitor: New Insights for Enhancement of Peptide Bioactivities” (Pharmaceutics, 2022)
Peptide text beside a SMILES is read from it.

Experiments:
[1] = tested on: H157 human lung cancer cells; test: MTT cell antiproliferation assay; type: cell-based; details: 24 h of treatment, serum free medium, 10^−9–10^−4 M
Procedure: (§1) The antiproliferative activities of the synthesized peptides were assessed on six human cancer cell lines (PC-3, H157, H460, H838, MCF-7, U251MG) and two human normal cell lines (HMEC-1 and MRC-5) using the MTT cell viability assay. Human lung cancer cells (H838, H157, and H460) and human prostate cancer cells (PC-3) were cultured in complete growth medium (CGM) (Roswell Park Memorial Institute (RPMI) 1640 Medium (Gibco, Paisley, UK): Fetal bovine serum (FBS) (Gibco, Campinas, Brazil): Penicillin-streptomycin solution (PS) (Gibco, Grand Island, NY, USA) 89/10/1 v/v/v). Human glioblastoma astrocytoma (U251MG) and human breast cancer cell (MCF-7) were cultured in complete growth medium (Dulbecco’s Modified Eagle medium (DMEM) (Gibco, Paisley, UK): FBS: PS 89/10/1 v/v/v). Human microvascular endothelial cells (HMEC-1) and human pulmonary fibroblast cells (MRC-5) were cultured in MCDB131 medium (supplemented with 10% FBS, 1% PS, 10 ng/mL epidermal growth factor, 1 µg/mL hydrocortisone, and 10 mM glutamine) and Eagle’s Minimal Essential Medium (EMEM) (supplemented with 10% FBS and 1% PS), respectively. Cell suspension, containing 8 × 10^3 cells per 100 µL, was first added to 96-well plates for overnight incubation. Then, the adherent cells in the 96-well plates were subject to cell starvation using the serum free medium treatment for at least 4 h to ensure that the cells were all in the same growth cycle. The peptide solutions, with final concentrations of 10^−9–10^−4 M, were prepared with serum free medium and added onto the plate. In addition, Triton X-100 (0.1%) (Sigma-Aldrich, St. Louis, MO, USA) was used as a positive control. After 24 h of administration, the MTT solution was added to the plate and incubated for 2 h. Then, the supernatant was discarded and DMSO was added to dissolve the purple formazan crystals. The absorbance was measured in all wells using the Synergy HT plate reader at a wavelength of 570 nm.

[2] = tested on: H460 human lung cancer cells; test: MTT cell antiproliferation assay; type: cell-based; details: 24 h of treatment, serum free medium, 10^−9–10^−4 M
Procedure: as §1

[3] = tested on: HMEC-1 human microvascular endothelial cells; test: MTT cell antiproliferation assay; type: cell-based; details: HMEC-1 normal cells, 24 h of treatment, 10^−9–10^−4 M
Procedure: as §1

[4] = tested on: PC-3 human prostate cancer cells; test: MTT cell antiproliferation assay; type: cell-based; details: PC-3, MTT, 24 h of treatment, serum free medium, 10^−9–10^−4 M
Procedure: as §1

[5] = tested on: H838 human lung cancer cells; test: MTT cell antiproliferation assay; type: cell-based; details: 24 h of treatment, serum free medium, 10^−9–10^−4 M
Procedure: as §1

E. coli biofilm = test: Antibiofilm assays (MBIC/MBEC, crystal violet); type: cell-based, Escherichia coli; details: for Effect on existing biofilms (MBEC): E. coli pre-formed biofilm, 24 h, highest experimental concentration 128 µM; for Concentration inhibiting biofilm formation (MBIC): E. coli, LB + 1% glucose, overnight 37 °C, crystal violet 595 nm, tested 1 to 128 µM
Procedure: To explore the ability of peptides to inhibit and eradicate the biofilm of E. coli, the minimum biofilm inhibition concentrations (MBICs) and minimum biofilm eradication concentrations (MBECs) were tested, respectively. Luria-Bertani broth (LB) medium containing 1% glucose was used to culture E. coli. The subcultured bacteria were diluted to 5 × 10^5 CFU/mL and 99 µL of this bacterial suspension was used to mix with 1 µL of peptide solution at different concentrations (double-dilution of 12,800 to 100 µM) in a 96-well plate. After overnight culture in an oscillating incubator at 37 °C and 220 rpm, the formed biofilm was washed twice with 100 µL PBS, then fixed in methanol. Next, biofilm formation was evaluated by 0.1% crystal violet staining. After dyeing for 15 min, the excess crystal violet was washed off and 30% glacial acetic acid was added to each well of a 96-well plate after drying. Then, the plate was shaken for 15 min, and the absorbance was measured at 595 nm using the Synergy HT plate reader. For the determination of MBEC, after the biofilm was formed, it was first washed twice with PBS, then the fresh medium and different concentrations of peptide (similar to MBIC experiments) were added and incubated at 37 °C at 220 rpm. The absorbance measurement was the same as previously described after 24 h of MBIC.

C. albicans (ATCC 10231) = type: cell-based, Candida albicans; details: for MIC: MHB, 5 × 10^5 CFU/mL, overnight; for MBC: clear wells spotted onto MHA
Procedure: (§2) The antimicrobial efficacy screening of the purified peptides was performed by MIC/MBC experiments on the following six different bacteria and an opportunistic pathogenic yeast: E. coli (ATCC 8739), Klebsiella pneumoniae (K. pneumoniae) (ATCC 43816), Pseudomonas aeruginosa (P. aeruginosa) (ATCC 9027), Staphylococcus aureus (S. aureus) (ATCC 6538), methicillin-resistant Staphylococcus aureus (MRSA) (NCTC 12493), Enterococcus faecium (E. faecium) (NCTC 12697), and Candida albicans (C. albicans) (ATCC 10231). First, frozen beads of respective cultures were inoculated into Mueller Hinton broth (MHB) medium and incubated overnight at 37 °C. Next, 500 µL of respective suspensions were added to the fresh MHB medium for incubation, and then sub-cultured until reaching the log growth phase, which was determined by measuring the absorbance of cultures at a wavelength of 550 nm. Then, the subcultures were diluted to 5 × 10^5 CFU/mL and 99 µL of suspension was removed and mixed with 1 µL of peptide solution at different concentrations (double-dilution of 12,800 to 100 µM) in a 96-well plate. The blank control, vehicle control, growth control, and the positive control groups were prepared according to the conditions mentioned previously. The peptide solutions were added to the plate and mixed with the diluted microbial suspensions. After overnight incubation, the absorbance at 550 nm of each well was measured with a Synergy HT plate reader (Biotech, Minneapolis, MN, USA). Subsequently, the samples in each clear well were spotted onto Mueller Hinton agar (MHA) plates for the MBC assays of the tested peptides.

E. faecalis (NCTC 12697) = type: cell-based; details: for MIC: MHB, 5 × 10^5 CFU/mL, overnight; for MBC: clear wells spotted onto MHA
Procedure: as §2

horse erythrocytes = test: Haemolysis activity assay; type: cell-based; details: 2% horse erythrocytes in PBS, 37 °C, 2 h
Procedure: Horse erythrocytes (TCS Biosciences Ltd., Buckingham, UK) were washed completely with PBS and resuspended to obtain a 2% horse erythrocyte suspension. Then, the peptide solutions at different concentrations were gently mixed with the same volume of horse red blood cell suspension and the mixture of peptide and horse erythrocytes was placed into a humidified incubator at 37 °C for 2 h. After incubation, the mixture of all experimental groups was centrifuged at 900× g for 10 min and the supernatants obtained were transferred to a blank 96-well plate. The absorbance of each well was measured at 550 nm using the Synergy HT plate reader.

[6] = tested on: K. pneumoniae (ATCC 43816); type: cell-based, Klebsiella pneumoniae; details: for MIC: MHB, 5 × 10^5 CFU/mL, overnight; for MBC: clear wells spotted onto MHA
Procedure: as §2

[7] = peptide 128 µM (maximum test concentration), vs 0.1% Triton X-100

SMILES: CC(C)C[C@H](NC(=O)[C@H](CCCCN)NC(=O)[C@H](C)NC(=O)[C@H](C)NC(=O)CNC(=O)CNC(=O)[C@H](CCCNC(=N)N)NC(=O)[C@H](CCCNC(=N)N)NC(=O)[C@H](CCCNC(=N)N)NC(=O)[C@H](CCC(N)=O)NC(=O)[C@H](CCCNC(=N)N)NC(=O)[C@H](CCCNC(=N)N)NC(=O)[C@H](CCCCN)NC(=O)[C@H](CCCCN)NC(=O)[C@@H](N)CCCNC(=N)N)C(=O)N1CCC[C@H]1C(=O)N[C@@H](Cc1ccccc1)C(=O)N[C@@H](CCCNC(=N)N)C(=O)N[C@H]1CSSC[C@@H](C(=O)O)NC(=O)[C@H](Cc2ccccc2)NC(=O)[C@H](C)NC(=O)[C@H](C)NC(=O)[C@H](CCCCN)NC1=O [TAT-KOV2] (HELM PEPTIDE1{R.K.K.R.R.Q.R.R.R.G.G.A.A.K.L.P.F.R.C.K.A.A.F.C}$PEPTIDE1,PEPTIDE1,19:R3-24:R3$$$V2.0)
- IC50 [1]: 45.8 µM
- IC50 [2]: 49.2 µM
- IC50 [3]: 166 µM
- IC50 [4]: 96.8 µM
- IC50 [5]: 92.4 µM
- Effect on existing biofilms (MBEC) (E. coli biofilm): > 128 µM
- Concentration inhibiting biofilm formation (MBIC) (E. coli biofilm): 8 µM
- MIC (C. albicans (ATCC 10231)): >128 µM
- MBC (C. albicans (ATCC 10231)): >128 µM
- MIC (E. faecalis (NCTC 12697)): 128 µM
- MBC (E. faecalis (NCTC 12697)): > 128 µM
- Haemolytic activity (horse erythrocytes; [7]): 10%
- MIC [6]: >128 µM
- MBC [6]: >128 µM

SMILES: CC(C)C[C@H](NC(=O)[C@H](CCCCN)NC(=O)[C@H](C)NC(=O)[C@H](C)NC(=O)CNC(=O)CNC(=O)[C@H](CCCNC(=N)N)NC(=O)[C@H](CCCNC(=N)N)NC(=O)[C@H](CCCNC(=N)N)NC(=O)[C@H](CCC(N)=O)NC(=O)[C@H](CCCNC(=N)N)NC(=O)[C@H](CCCNC(=N)N)NC(=O)[C@H](CCCCN)NC(=O)[C@H](CCCCN)NC(=O)[C@@H](N)CCCNC(=N)N)C(=O)N1CCC[C@H]1C(=O)N[C@@H](Cc1ccccc1)C(=O)N[C@@H](CCCNC(=N)N)C(=O)N[C@H]1CSSC[C@@H](C(=O)O)NC(=O)[C@H](Cc2ccccc2)NC(=O)[C@H](C)NC(=O)[C@H](C)NC(=O)[C@H](Cc2ccccc2)NC1=O [TAT-F9-KOV2] (HELM PEPTIDE1{R.K.K.R.R.Q.R.R.R.G.G.A.A.K.L.P.F.R.C.F.A.A.F.C}$PEPTIDE1,PEPTIDE1,19:R3-24:R3$$$V2.0)
- IC50 [1]: 2.2 µM
- IC50 [2]: 5.1 µM
- IC50 [3]: 98.1 µM
- IC50 [4]: 44.3 µM
- IC50 [5]: 9.9 µM
- Effect on existing biofilms (MBEC) (E. coli biofilm): > 128 µM
- Concentration inhibiting biofilm formation (MBIC) (E. coli biofilm): 16 µM
- MIC (C. albicans (ATCC 10231)): >128 µM
- MBC (C. albicans (ATCC 10231)): >128 µM
- MIC (E. faecalis (NCTC 12697)): >128 µM
- MBC (E. faecalis (NCTC 12697)): >128 µM
- Haemolytic activity (horse erythrocytes; peptide 32 µM): 10%
- Haemolytic activity (horse erythrocytes; [7]): about 25%
- MIC [6]: >128 µM
- MBC [6]: >128 µM

SMILES: CC(C)C[C@H](NC(=O)[C@H](CCCCN)NC(=O)[C@H](C)NC(=O)[C@H](C)N)C(=O)N1CCC[C@H]1C(=O)N[C@@H](Cc1ccccc1)C(=O)N[C@@H](CCCNC(=N)N)C(=O)N[C@H]1CSSC[C@@H](C(=O)O)NC(=O)[C@H](Cc2ccccc2)NC(=O)[C@H](C)NC(=O)[C@H](C)NC(=O)[C@H](Cc2ccccc2)NC1=O [F9-KOV2] (HELM PEPTIDE1{A.A.K.L.P.F.R.C.F.A.A.F.C}$PEPTIDE1,PEPTIDE1,8:R3-13:R3$$$V2.0)
- Concentration inhibiting biofilm formation (MBIC) (E. coli biofilm): > 128 µM
- MIC (C. albicans (ATCC 10231)): >128 µM
- MBC (C. albicans (ATCC 10231)): >128 µM
- MIC (E. faecalis (NCTC 12697)): >128 µM
- MBC (E. faecalis (NCTC 12697)): >128 µM
- Haemolytic activity (horse erythrocytes; [7]): less than 10%
- MIC [6]: >128 µM
- MBC [6]: >128 µM

SMILES: CC(C)C[C@H](NC(=O)[C@H](CCCCN)NC(=O)[C@H](C)NC(=O)[C@H](C)N)C(=O)N1CCC[C@H]1C(=O)N[C@@H](Cc1ccccc1)C(=O)N[C@@H](CCCNC(=N)N)C(=O)N[C@H]1CSSC[C@@H](C(=O)O)NC(=O)[C@H](Cc2ccccc2)NC(=O)[C@H](C)NC(=O)[C@H](C)NC(=O)[C@H](CCCCN)NC1=O [Kunitzin-OV2] (HELM PEPTIDE1{A.A.K.L.P.F.R.C.K.A.A.F.C}$PEPTIDE1,PEPTIDE1,8:R3-13:R3$$$V2.0)
- Concentration inhibiting biofilm formation (MBIC) (E. coli biofilm): > 128 µM
- MIC (C. albicans (ATCC 10231)): >128 µM
- MBC (C. albicans (ATCC 10231)): >128 µM
- MIC (E. faecalis (NCTC 12697)): >128 µM
- MBC (E. faecalis (NCTC 12697)): >128 µM
- Haemolytic activity (horse erythrocytes; [7]): less than 10%
- MIC [6]: >128 µM
- MBC [6]: >128 µM
